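Following 48 hours of exposure in 96-well plates, responses at five concentrations were used to interpolate endpoints linearly. At the GI50, growth is halved. TGI is the concentration that stops growth completely.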
How the values were obtained:
Assay in all cases: DTP human tumour cell line panel, 48 h
A498 renal = test system: A498 renal
CCRF-CEM leukemia = test system: CCRF-CEM leukemia
EKVX NSCLC = test system: EKVX NSCLC
HCT-116 colon = test system: HCT-116 colon
HL-60(TB) leukemia = test system: HL-60(TB) leukemia
HOP-92 NSCLC = test system: HOP-92 NSCLC
NCI-H226 lung = test system: NCI-H226 lung
SF-268 CNS = test system: SF-268 CNS
U251 CNS = test system: U251 CNS
NCI/ADR-RES ovarian = test system: NCI/ADR-RES ovarian

Row | Compound | TGI (A498 renal) [µM] | TGI (CCRF-CEM leukemia) [µM] | TGI (EKVX NSCLC) [µM] | TGI (HCT-116 colon) [µM] | TGI (HL-60(TB) leukemia) [µM] | TGI (HOP-92 NSCLC) [µM] | TGI (NCI-H226 lung) [µM] | TGI (SF-268 CNS) [µM] | TGI (U251 CNS) [µM] | TGI (NCI/ADR-RES ovarian) [µM] | GI50 (A498 renal) [nM] | GI50 (EKVX NSCLC) [nM] | GI50 (HCT-116 colon) [nM] | GI50 (HOP-92 NSCLC) [nM] | GI50 (NCI/ADR-RES ovarian) [µM] | GI50 (SF-268 CNS) [nM] | GI50 (U251 CNS) [nM]
1 | CC(=O)Oc1ccc2cc(Oc3cc(Cl)c(Cl)cc3Cl)c(=O)oc2c1 | 46.7 | 37.9 | 71.9 | 28.1 | 68.8 | 48 | 36.7 | > 100 | 32.5 |  |  |  |  |  |  |  | 
2 | Nc1nc(Cl)c2ncn(CCCC(c3ccccc3)P(=O)(O)O)c2n1 (centres undefined) | > 100 | > 100 |  | > 100 | > 100 | > 100 |  | > 100 | > 100 |  |  |  |  |  |  |  | 
3 | C[C@]12CC[C@H]3[C@@H](CC=C4C[C@@H](O)CC[C@@]43C)[C@@H]1C/C(=C\c1cccnc1)[C@@H]2O | 42.9 | > 100 | 35.8 | > 100 |  | 59.6 | 57.4 |  | 28.7 | > 100 |  |  |  |  |  |  | 
4 | Nc1nc(SCc2ccccc2Cl)c2ncn(C3OC(CO)C(O)C3O)c2n1 (centres undefined) | > 100 | > 100 |  | > 100 | > 100 | > 100 |  | > 100 | > 100 |  |  |  |  |  |  |  | 
5 | COc1cc2c(c(OC)c1OC)C(=O)c1c(O)cc(C)c(OC)c1C2=O | > 100 |  | > 100 | > 100 | > 100 | > 100 | > 100 | > 100 | > 100 | > 100 |  |  |  |  |  |  | 
6 | CC(C)(C)OC(=O)Cn1ncn(NC(=O)Cc2ccccc2)c1=S | > 10 | > 10 | > 10 | > 10 |  | > 10 |  | > 10 | > 10 | > 10 |  |  |  |  |  |  | 
7 | CCCCCCCCCCCC1N=C(N)N=C(N)N1c1cccc(Br)c1 (centres undefined) | 11.3 |  | 2.44 | 1.5 |  | 4.34 |  | 2.7 | 1.98 | 39.6 | 2650 | 1050 | 216 | 1510 | 14.6 | 1280 | 631
8 | CCOC(=O)C(O)(CC1=NC(C(=O)OC)(C(=O)OC)C(c2cccc(C=O)c2)O1)C(=O)OCC (centres undefined) | > 100 | > 100 | > 100 | > 100 | > 100 | > 100 | > 100 |  | > 100 | > 100 |  |  |  |  |  |  | 
9 | C/C(=C\C(=O)Nc1ccc2n[nH]nc2c1)Nc1ccc2n[nH]nc2c1 | > 100 | > 100 | > 100 | > 100 | > 100 | > 100 | > 100 | > 100 | > 100 |  |  |  |  |  |  |  | 
10 | O=C(/C=C/c1ccc(-c2ccccc2)cc1)NCc1ccc(C(=O)NCCc2ccccc2)cc1 | > 100 | 39.1 | > 100 | > 100 |  | > 100 | > 100 | > 100 | > 100 | > 100 |  |  |  |  |  |  | 
11 | CCOc1ccc2nc(NC(=O)C(=O)C3C(=O)C(CC4C(=O)c5ccccc5C4=O)C(=O)CC3(C)C)sc2c1 (centres undefined) |  | 70.1 | > 100 | > 100 | 64.2 | > 100 | > 100 | > 100 | > 100 | > 100 |  |  |  |  |  |  | 
12 | CN(C)C(=O)C(F)(F)C(c1ccccc1Br)C1C(=O)N(C)C(=O)N(C)C1=O (centres undefined) | > 100 | > 100 | > 100 | > 100 |  | > 100 | > 100 | > 100 | > 100 | > 100 |  |  |  |  |  |  | 
13 | O/N=C\c1c2c(cc3c1CCC3)CCC2 | > 100 | > 100 | > 100 | > 100 | > 100 |  | > 100 | > 100 | > 100 | > 100 |  |  |  |  |  |  | 
14 | CC1CC(=O)N(N(C)C)C2(C#N)C(=O)N=C(N)C12C#N (centres undefined) | > 100 | 67.5 | > 100 | > 100 | 51.7 | > 100 |  | > 100 | > 100 | > 100 |  |  |  |  |  |  | 
15 | ClC1=NSSC1(Cl)Cl | > 100 | > 100 | > 100 | > 100 | 5.25 |  | > 100 |  | > 100 | > 100 |  |  |  |  |  |  | 
16 | C[N+](C)(CCNc1ccc(NCC[N+](C)(C)Cc2ccc([N+](=O)[O-])cc2)c2c1C(=O)c1c(O)ccc(O)c1C2=O)Cc1ccc([N+](=O)[O-])cc1 | > 50 | > 50 | > 50 | > 50 | > 50 |  |  | > 50 | > 50 | > 50 |  |  |  |  |  |  | 
17 | CCOc1ccc(C2=NN(CC)C(=O)C(C3C(=O)N(c4ccccc4)N=C3C)C2)cc1 (centres undefined) | > 100 | > 100 | > 100 | > 100 | > 100 | > 100 | > 100 | > 100 | > 100 |  |  |  |  |  |  |  | 
18 | CCOC(=O)C(C)c1nc2cc(F)c(F)cc2[nH]c1=O (centres undefined) |  | > 100 | > 100 | > 100 | > 100 | > 100 | > 100 | > 100 | > 100 | > 100 |  |  |  |  |  |  | 
19 | Cc1sc(/N=C/C2=C(O)CC(C)(C)CC2=O)nc1-c1ccccc1 |  | > 100 | > 100 | > 100 | 5.93 | > 100 | > 100 | > 100 | > 100 | > 100 |  |  |  |  |  |  | 
20 | NC(Cc1ccccc1)C(=O)OCN1C(=O)C2C3C=CC(C2C1=O)C1C(=O)N(COC(=O)C(N)Cc2ccccc2)C(=O)C31 (centres undefined) |  | 49.7 | > 100 | > 100 | 37.8 |  | > 100 | > 100 | > 100 | > 100 |  |  |  |  |  |  | 
21 | CNC(=S)N/N=C/C(C)=N/NC(=S)NC | > 100 |  | > 100 | > 100 |  |  |  | > 100 | > 100 |  |  |  |  |  |  |  | 
22 | O=C1NC(N2CCCC(CO)C2)=N/C1=C\c1cccs1 (centres undefined) |  | > 100 | > 100 | > 100 | > 100 | > 100 | > 100 | > 100 | > 100 | > 100 |  |  |  |  |  |  | 
23 | CSc1c(C(C)=O)c(O)n(-c2ccc(C)cc2)c(=O)c1C#N | > 100 | > 100 | > 100 | > 100 | > 100 |  | > 100 | > 100 | > 100 | > 100 |  |  |  |  |  |  | 

From PubChem BioAssay (NCI)
